Assay results taken from PMC6008492, “Structure activity relationship studies on rhodanines and derived enethiol inhibitors of metallo-β-lactamases” (Bioorganic & Medicinal Chemistry, 2018).
Like-named read-outs stand apart in the source and are kept apart here.

How the values were obtained:
VIM-2 = target: T1, VIM-2 (Escherichia coli, UniProt Q5U7L7); experiment: biochemical; conditions: for IC50: enethiols 6 assayed as sodium salts, 10 min incubation, read-out: IC50 VIM-2 (converted); for remaining activity at 100 µM: read-out: % Residual activity versus VIM-2
T1 construct: made in house
Procedure: (§1) Inhibition analyses against bacterial MBLs and SBLs were performed as described previously.[22], [24], [26] Residual enzyme activities were determined for a range of inhibitor concentrations. Non-linear regression fitting of IC50 curves was carried out using a three-parameter dose–response curve in GraphPad Prism. Errors in IC50 values are expressed as: σ(logIC50)/logIC50×IC50
(§2) We first screened the inhibitors against a representative set of presently clinically important and other MBLs[22], comprising both Class B1 enzymes (NDM-1, New Delhi MBL-1; VIM-2, Verona integron–encoded MBL-2; BcII, Bacillus cereus II MBL; SPM-1, São Paulo MBL-1; IMP-1, imipenemase MBL-1) and the Class B2 MBL CphA (carbapenem hydrolysing MBL from Aeromonas hydrophila).[22] The latter MBL (CphA) only utilises one active site Zn(II) ion in catalysis, whilst the others normally use two Zn(II) ions. We also screened the inhibitors against a representative panel of SBLs from different classes (TEM-1, Temoneira β-lactamase-1, class A; CTX-M-15, cefotaxime hydrolysing β-lactamase from Munich 15, class A, extended spectrum β-lactamase (ESBL); AmpC E. coli, class C, and OXA-10, oxacillinase-10, class D).
Figure S6: IC50 curves for VIM-2 inhibition time courses. Residual activities were calculated from the
(§3) initial rate of FC5 hydrolysis after incubation of the enzyme with the inhibitor for 10 minutes. […]

BcII = target: T2, BcII (Bacillus cereus, UniProt P04190); experiment: biochemical; conditions: for remaining activity at 100 µM: read-out: % Residual activity versus BcII
T2 construct: made in house
Procedure: as §1
(§4) We first screened the inhibitors against a representative set of presently clinically important and other MBLs[22], comprising both Class B1 enzymes (NDM-1, New Delhi MBL-1; VIM-2, Verona integron–encoded MBL-2; BcII, Bacillus cereus II MBL; SPM-1, São Paulo MBL-1; IMP-1, imipenemase MBL-1) and the Class B2 MBL CphA (carbapenem hydrolysing MBL from Aeromonas hydrophila).[22] The latter MBL (CphA) only utilises one active site Zn(II) ion in catalysis, whilst the others normally use two Zn(II) ions.
Figure S2: IC50 curves for BcII inhibition time courses. Residual activities were calculated from the initial
rate of FC5 hydrolysis after incubation of the enzyme with the inhibitor for 10 minutes. […]

IMP-1 = target: T3, IMP-1 (Serratia marcescens, UniProt P52699); experiment: IMP-1 inhibition, fluorogenic cephalosporin (FC5) hydrolysis; format: biochemical; conditions: for IC50: enethiols 6 assayed as sodium salts, 10 min incubation, read-out: IC50 IMP-1 (converted); for remaining activity at 100 µM: read-out: % Residual activity versus IMP-1
T3 construct: made in house
Procedure: as §1, §4
Figure S3: IC50 curves for IMP-1 inhibition time courses. Residual activities were calculated from the
initial rate of FC5 hydrolysis after incubation of the enzyme with the inhibitor for 10 minutes.

NDM-1 = target: T4, NDM-1 (Klebsiella pneumoniae, UniProt C7C422); experiment: NDM-1 inhibition, fluorogenic cephalosporin (FC5) hydrolysis; format: biochemical; conditions: for IC50: enethiols 6 assayed as sodium salts, 10 min incubation, read-out: IC50 NDM-1; for remaining activity at 100 µM: read-out: % Residual activity versus NDM-1
T4 construct: made in house
Procedure: as §1, §4
Figure S4: IC50 curves for NDM-1 inhibition time courses. Residual activities were calculated from the
as §3

SPM-1 = SPM-1 (Pseudomonas aeruginosa, UniProt Q8G9Q0); experiment: SPM-1 inhibition, fluorogenic cephalosporin (FC5) hydrolysis; format: biochemical; conditions: for IC50: enethiols 6 assayed as sodium salts, 10 min incubation, read-out: IC50 SPM-1 (converted); for remaining activity at 100 µM: read-out: % Residual activity versus SPM-1
Procedure: as §1, §4
Figure S5: IC50 curves for SPM-1 inhibition time courses. Residual activities were calculated from the
as §3

[1] = test system: MBLs (SPM-1, IMP-1, BcII, VIM-2, NDM-1); format: biochemical; conditions: for IC50: lower end of the range, read-out: IC50 values from (lowest across the MBL panel); for MBL inhibition, result in words: at 100 µM
Procedure: as §1, §2

CphA = target: T5, CphA (Aeromonas hydrophila, UniProt P26918); experiment: CphA (subclass B2 MBL) inhibition; format: biochemical
T5 construct: made in house
Procedure: as §1, §2

[2] = enethiols 6 assayed as sodium salts, 10 min incubation, read-out: IC50 BcII (converted)

T5 sequence (P26918 28-254): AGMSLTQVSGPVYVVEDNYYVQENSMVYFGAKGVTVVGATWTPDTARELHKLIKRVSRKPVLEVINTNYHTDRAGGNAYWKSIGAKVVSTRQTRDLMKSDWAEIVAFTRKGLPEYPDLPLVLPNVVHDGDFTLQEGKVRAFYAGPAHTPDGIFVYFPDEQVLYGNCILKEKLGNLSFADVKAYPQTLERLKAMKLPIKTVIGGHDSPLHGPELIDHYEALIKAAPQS
Sequence of SPM-1 (Q8G9Q0 entry or part of it): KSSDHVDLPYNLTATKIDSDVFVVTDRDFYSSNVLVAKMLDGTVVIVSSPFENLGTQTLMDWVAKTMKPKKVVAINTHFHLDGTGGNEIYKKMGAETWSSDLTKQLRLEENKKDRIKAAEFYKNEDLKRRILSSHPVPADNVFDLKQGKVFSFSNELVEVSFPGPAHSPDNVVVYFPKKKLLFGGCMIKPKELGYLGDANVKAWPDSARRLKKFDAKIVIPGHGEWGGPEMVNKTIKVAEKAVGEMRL
T2 sequence (P04190 31-257): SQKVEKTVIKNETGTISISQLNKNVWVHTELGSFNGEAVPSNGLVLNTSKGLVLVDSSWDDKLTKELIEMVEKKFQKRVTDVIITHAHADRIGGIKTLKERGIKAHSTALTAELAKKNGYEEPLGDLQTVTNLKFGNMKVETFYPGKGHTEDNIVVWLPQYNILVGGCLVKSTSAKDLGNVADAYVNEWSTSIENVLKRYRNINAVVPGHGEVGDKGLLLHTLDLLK
T3 sequence (P52699 19-246, looked up, species assumed): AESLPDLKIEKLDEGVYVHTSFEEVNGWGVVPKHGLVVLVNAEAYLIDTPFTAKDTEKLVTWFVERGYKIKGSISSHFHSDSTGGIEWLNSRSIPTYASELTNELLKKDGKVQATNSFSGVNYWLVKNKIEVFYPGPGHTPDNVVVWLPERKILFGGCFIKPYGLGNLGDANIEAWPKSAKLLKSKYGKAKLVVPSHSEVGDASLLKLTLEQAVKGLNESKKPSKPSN
T4 sequence (C7C422 29-270, looked up, species assumed): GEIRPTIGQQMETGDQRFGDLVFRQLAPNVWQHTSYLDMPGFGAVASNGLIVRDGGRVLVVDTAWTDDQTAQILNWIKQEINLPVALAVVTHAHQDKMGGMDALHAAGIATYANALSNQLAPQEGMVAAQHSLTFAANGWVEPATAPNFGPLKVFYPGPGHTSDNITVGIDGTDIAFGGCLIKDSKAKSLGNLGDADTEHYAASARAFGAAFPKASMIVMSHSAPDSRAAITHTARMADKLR

| Compound | IC50 (VIM-2) [nM] | IC50 (BcII; [2]) [nM] | IC50 (IMP-1) [nM] | IC50 (NDM-1) [nM] | IC50 (SPM-1) [nM] | further results |
| --- | --- | --- | --- | --- | --- | --- |
| O=C(O)/C(S)=C/c1c(F)cccc1F [Compound 6p] | 200 | 100 | 200 | 21500 | 60 | IC50 [1]: 60 nM |
| O=C(O)/C(S)=C/c1ccccc1 [Compound 6a] | 400 | 700 | 300 | 7900 | 300 | IC50 (BcII; Table 2, read-out: IC50 versus BcII): 700 ± 200 nM; IC50 (CphA; Table 2, read-out: IC50 versus CphA): 2100 ± 20 nM |
| CN1CCN(NC(=O)CN2C(=O)/C(=C/c3c(Cl)cccc3Cl)SC2=S)CC1 [Compound 5m] | 300 | 200 | 200 | 28400 | 200 | IC50 (CphA): > 50000 nM |
| O=C(O)/C(O)=C/c1ccc(F)cc1 [Compound 17] |  |  |  |  |  | remaining activity at 100 µM (VIM-2; at 100 µM): 100%; remaining activity at 100 µM (BcII; at 100 µM): 90 ± 3%; remaining activity at 100 µM (IMP-1; at 100 µM): 100%; remaining activity at 100 µM (NDM-1; at 100 µM): 97 ± 4%; remaining activity at 100 µM (SPM-1; at 100 µM): 93 ± 2%; MBL inhibition, result in words [1]: near inactive |
| O=P(O)(O)C(O)c1ccc(Br)cc1F (centres unmarked) [Compound 22] |  |  |  |  |  | remaining activity at 100 µM (VIM-2): 100%; remaining activity at 100 µM (BcII): 98 ± 2%; remaining activity at 100 µM (IMP-1): 100%; remaining activity at 100 µM (NDM-1): 100%; remaining activity at 100 µM (SPM-1): 92 ± 5%; MBL inhibition, result in words [1]: inactive |
| CC1=N/C(=C\c2ccc(F)cc2)C(=O)O1 [Compound 16] |  |  |  |  |  | remaining activity at 100 µM (VIM-2; at 100 µM): 100%; remaining activity at 100 µM (BcII; at 100 µM): 92 ± 2%; remaining activity at 100 µM (IMP-1; at 100 µM): 100%; remaining activity at 100 µM (NDM-1; at 100 µM): 97 ± 2%; remaining activity at 100 µM (SPM-1; at 100 µM): 87 ± 1%; MBL inhibition, result in words [1]: near inactive |
| CN1CCN(NC(=O)CN2C(=O)/C(=C/c3ccccc3I)SC2=S)CC1 [Compound 5i] | 37600 | > 50000 | 37100 | > 50000 | 8800 |  |
| CN1CCN(NC(=O)CN2C(=O)/C(=C/c3c(Cl)ccc(Cl)c3Cl)SC2=S)CC1 [ML302, reference compound] | 60 | 300 | 90 | 15600 | 100 | fold less active than ML302F, BcII (BcII; ratio of IC50 values): ~4 fold; IC50 (CphA; read-out: IC50 CphA): > 50000 nM; fold less active than ML302F, NDM-1 (NDM-1; ratio of IC50 values): ~15 fold; fold less active than ML302F, SPM-1 (SPM-1; ratio of IC50 values): ~5 fold |
| O=C(O)CN1C(=O)/C(=C/c2c(Cl)ccc(Cl)c2Cl)SC1=S [ML302A] | 3600 ± 700 | 21300 ± 500 | 9600 ± 400 | > 50000 | 4800 ± 300 |  |
| O=C(O)CN1C(=O)/C(=C/c2ccccc2Br)SC1=S [Compound 3h] | > 50000 | > 50000 | 32500 ± 1300 | > 50000 | 36600 ± 800 |  |
| O=C(O)CN1C(=O)/C(=C/c2cccc(Cl)c2Cl)SC1=S [Compound 3n] | 7600 ± 300 | 22100 ± 1000 | 46200 ± 1400 | > 50000 | 1000 ± 100 |  |
| O=C(O)/C(S)=C/c1cccc(Cl)c1Cl [Compound 6n] | 1300 | 1000 | 1000 | 46500 | 200 | IC50 [1]: 200 nM |
| CN1CCN(NC(=O)CN2C(=O)/C(=C/c3c(F)cccc3F)SC2=S)CC1 [Compound 5p] | 41700 | 3000 | 1300 | > 50000 | 1300 |  |
